The subject of experiment [1] is senescence-accelerated model mouse SAM-P8. As to the kind of experiment: Genome expression (RNA sequencing, PCA) in the whole brain of senescence-accelerated model mice after oral administration. The format is in vivo. As to conditions: oral 7 days: donepezil 5 mg/kg, acteoside 100 mg/kg, SSa extract powder 500 mg/kg, brain after 30 days.
Description: Seven-week-old male normal aged mouse SAM-R and male senescence-accelerated model mouse SAM-P8 that were respectively obtained from Japan SLC were arbitrarily divided into two groups of 10 mice each and acclimatized for 1 week. Then, 500 mg/kg of SSa extract powder was orally administered to SAM-R SSa extract powder-administered group and SAM-P8 SSa extract powder-administered group for 7 days. Each group of mice other than the above groups was given normal feed and water freely. Next, after the mice were reared for 30 days, the mice were humanely killed by anesthesia. The whole brain was taken out and preserved at −80° C. by the genome analysis.
Next, chloroform (0.2 mL) was added thereto, and the mixture was stirred well for 15 seconds and then stood still for 2 to 3 minutes. […]
The specific mRNA was concentrated from the obtained total RNA using an RNA sample preparation kit (“TruSeq Standard mRNA Library Prep kit” manufactured by Illumina). […] Then, the sequences of the cDNA library were determined using a next-generation DNA sequencer (“NoVaSeq6000” manufactured by Illumina) in the conditions of 100 bp, Paired-end and 40,000,000 read per 1 sample.
STAR>cufflinks>cuffdif analysis was carried out to compare the analysis results. GRCm38.92 was used as a mouse genome database, and the gene expression amount in gene level and in exon level as the component element of the gene was analyzed. […]
The target in experiment [2] is T1, human islet amyloid polypeptide (hIAPP) (Homo sapiens, UniProt P10997).
T1 construct: hIAPP manufactured by Karebay Biochem was used in place of Aβ; purchased Karebay Biochem
T1 sequence (P10997 34-70 limits assumed): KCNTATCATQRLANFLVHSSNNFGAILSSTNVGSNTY
As to the kind of experiment: hIAPP accumulation inhibitory activity using Thioflavin-T. Format: biochemical. As to conditions: compounds at 1, 10, 100 μM in PBS pH7.4.

In experiment [3] the target is T2, Aβ derived from human (Human, 1-42) (Homo sapiens, UniProt P05067).
T2 construct: Aβ derived from human (“Human, 1-42” manufactured by Peptide Institute); purchased Peptide Institute
As to the kind of experiment: Aβ accumulation inhibitory activity using Thioflavin-T. Format: biochemical. As to conditions: pure compounds, similarly to Example 5(1); Aβ 25 μM, 24 hours. As to the method: The Aβ accumulation inhibitory activities of each fraction were determined using Thioflavin-T in the following condition. Aβ derived from human (“Human, 1-42” manufactured by Peptide Institute) was dissolved in 0.1% ammonia water in a concentration of 250 μM. Each of the fraction samples was added to a phosphate buffer (0.05 M sodium phosphate+0.1 M sodium chloride, pH7.4) (hereinafter abbreviated as “PBS”) in the final concentrations of 0.01 g/L, 0.05 g/L and 0.1 g/L. The Aβ solution was added thereto in the final concentration of 25 μM for the reaction at 37° C. A part of the reaction mixture was collected 0, 4, 8 and 24 hours after the start of the reaction, and 2.5 μL of the collected reaction mixture was added to each well of a 96 well plate for fluorescence measurement (“Nunc FluoroNunc plate” manufactured by Thermo Fisher Science). Then, Thioflavin-T solution was dissolved in 50 mM glycine-sodium hydroxide buffer (pH 8.5), and the solution (250 μL) was added to each well. The fluorescence intensity emitted when the B sheet of the Aβ fiber was labeled with Thioflavin-T was measured. The fluorescence intensity was measured using a microplate reader (“Wallac 1420 ARVO MX” manufactured by Perkin Elmer) in the condition of a wavelength of Excitation: 420 nm and Emission: 485 nm.

SMILES strings stand for the structures. pIC50: −log10 of the molar value.

T2 sequence (P05067 672-713 limits assumed): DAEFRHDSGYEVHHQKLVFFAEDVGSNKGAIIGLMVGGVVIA

A word on the pIC50: it is the IC50 on a negative log10 scale, so that one unit is a factor of ten. Read a low pIC50 as a high IC50. Turning to `C[C@@H]1O[C@@H](O[C@@H]2[C@@H](O)[C@H](OCCc3ccc(O)c(O)c3)O[C@H](CO)[C@H]2OC(=O)/C=C/c2ccc(O)c(O)c2)[C@H](O)[C@H](O)[C@H]1O` [Acteoside, acteoside], the “Difference of expression pattern from the control group on PC1 axis (PCA, gene and exon level)” value in experiment [1] is “not a large difference”. Also, the pIC50 is 4.68 in experiment [2] and 4.89 in experiment [3].

Regarding `COc1cc2oc(-c3ccc(O)c(O)c3)cc(=O)c2c(O)c1O[C@@H]1O[C@H](CO)[C@@H](O)[C@H](O)[C@H]1O` [Pedaliin, pedaliin], the pIC50 in experiment [2] was 5.38; in experiment [3] it was 5.55.

Source of the values: patent US20260108572A1, “ALZHEIMER-TYPE DEMENTIA SUPPRESSANT, AND METHOD FOR PRODUCING SAME” (Sakamoto Yakusouen, LLC, priority 2022, published 2026).
